Test system: COVID-19 virus
Experiment: Inhibition of COVID-19 virus replication in Vero E6 cells (vRNA in supernatant by qRT-PCR)
Type: cell-based, COVID-19 virus (clinical isolates) in Vero E6 cells
Conditions: for antiviral effect (viral RNA replication): Vero cells infected with COVID-19 virus, MOI 0.05, compound at concentrations of 30 μM and 10 μM, FIG. 2
Procedure: In order to further confirm the results of enzyme inhibition in vitro, whether the bromophenol-pyrazoline compounds can prevent COVID-19 virus replication in Vero E6 cells infected with clinical isolates of COVID-19 virus was evaluated in the present invention.
Specific operations: The pre-seeded Vero E6 cells (5×10^4 cells/well) were pre-treated for 1 hr with various concentrations of bromophenol-pyrazoline compounds to be tested, and then infected for 2 hrs by adding COVID-19 virus (with an MOI of 0.05). Then, the mixture of the virus and compound was removed, and the cells were further incubated in a fresh medium containing the bromophenol-pyrazoline compound. After 24 hrs, the cell supernatant was collected, and the vRNA in the supernatant was analyzed by qRT-PCR.

SMILES	antiviral effect (viral RNA replication)	EC50 (Severe acute respiratory syndrome coronavirus 2, Vero C1008, read-out: EC50, inhibition of virus replication) [µM]
CCOc1ccc(Oc2ccc(C3=NN(C=O)C(c4cc(O)c(O)c(Br)c4Br)C3)cc2)cc1 (stereo not shown) [Compound 6b, 5-(2,3-dibromo-4,5-dihydroxyphenyl)-3-(4-(4-ethoxyphenoxy)phenyl)-4,5-dihydro-1H-pyrazol-1-carboxaldehyde]	strong antiviral effects	
CCOc1ccc(Oc2ccc(C3=NNC(c4cc(O)c(O)c(Br)c4Br)C3)cc2)cc1 (stereo not shown) [Compound 6a, 3,4-dibromo-5-(3-(4-(4-ethoxyphenoxy)phenyl)-4,5-dihydro-1H-pyrazol-5-yl)-1,2-dihydroxybenzene]	strong antiviral effects	4.45
CCOc1ccc(Oc2ccc(C3=NN(C(C)=O)C(c4cc(O)c(O)c(Br)c4Br)C3)cc2)cc1 (stereo not shown) [Compound 6c, 5-(2,3-dibromo-4,5-dihydroxyphenyl)-3-(4-(4-ethoxyphenoxy)phenyl)-4,5-dihydro-1H-1-acetyl pyrazole]	strong antiviral effects	
